Test results as given in patent US20250099455A1, “TREATMENT FOR CONGESTIVE HEART FAILURE” (FibroGen, Inc., priority 2022, published 2025).

Tested on: myocardial ischemia-induced heart failure (HFrEF)
Test: Rat model of ischemic HFrEF, Formula I and empagliflozin alone and in combination
Type: in vivo
Description: • Male Sprague Dawley rats • Ligation of left coronary artery for 30 minutes followed by reperfusion • Post-ligation recovery for 28 days • Cardiac function 28 days after ischemia-reperfusion using a Millar pressure-volume catheter inserted in the left ventricle via the carotid artery • Record pressure-volume loops over several cardiac cycles and derived cardiac function parameters A) Rat Model of Ischemic Heart Failure with Reduced Ejection Fraction (HFrEF)

OC[C@H]1O[C@@H](c2ccc(Cl)c(Cc3ccc(O[C@H]4CCOC4)cc3)c2)[C@H](O)[C@@H](O)[C@@H]1O [empagliflozin, reference compound]
improvement in ejection fraction: ~30%
improvement in end systolic volume: ~30%
